Test results reported in PMC3049581, “Development and evaluation of human AP endonuclease inhibitors in melanoma and glioma cell lines” (British Journal of Cancer, 2011).
“Also recorded” adds a separate entry of the source. Like-named read-outs stand apart in the source and are kept apart here.

What was measured:
Human APE1 = biological target: T1, Human APE1 (Homo sapiens, UniProt P27695); assay: Fluorescence-based AP site cleavage assay; format: biochemical; conditions: APE1 50 nM, wild type
T1 construct: purchased New England Biolabs
Description: (§1) A fluorescence-based AP site cleavage assay was performed as described previously with slight modifications ([Madhusudan et al, 2005]). Briefly, APE1 (50 nM) (New England Biolabs) was incubated in a buffer system consisting of 50 mM Tris-HCl, pH 8.0, 1 mM MgCl2, 50 mM NaCl, 2 mM DTT at 37°C for 10 min. 5′-F-GCCCCCXGGGGACGTACGATATCCCGCTCC-3′ and its complementary Q-labelled oligonucleotide (see above) were annealed in a buffer containing 100 μM Tris-HCl, 50 mM NaCl and 1 μM EDTA. AP-site cleavage was initiated by addition of the annealed substrate (25 nM) to the reaction mix. Fluorescence readings were taken at 5 min intervals during 30 min incubation at 37°C using an Envision Multilabel reader from Perkins Elmer (Cambridge, UK) with a 495 nm excitation and a 512 nm emission filter. If the DNA is cleaved at the abasic site at position 7 from the 5′-end by APE1, the 6-mer fluorescein-containing product will dissociate from its complement by thermal melting. As a result, the quenching effect of the 3′ dabcyl (which absorbs fluorescein fluorescence when in close proximity) is lost, and APE1 activity is measured indirectly as an increase in fluorescence signal (Figure 2A). Similar assays were developed for monitoring the AP endonuclease activity of endonuclease IV using a buffering system containing 10 mM HEPES-KOH, pH 7.4, 100 mM KCl and 60 ng of endonuclease IV (Trevigen, Abingdon, UK). The final DMSO concentration was maintained at 1.2% in all assays.
(§2) APE1 was incubated with the candidate inhibitors at 100 μM (final DMSO concentration, 1.2%) before initiating the AP site cleavage assay described in the previous section. […] In addition, screening of potential inhibitors for their specificity (at 100 μM concentration) was performed using endonuclease IV cleavage assays.
(§3) To estimate IC50 for APE1 inhibition, the ability of the compounds to inhibit APE1 at a range of concentrations (10 nM–100 μM) were evaluated in black 384-well plates. The reactions were set up as before and fluorescence intensity was measured every 5 min for 30 min following reaction initiation. Using the initial rate values from the assay, percent activity was calculated for each sample relative to a negative DMSO only control. The data was fitted to a sigmoidal dose-response model using Graphpad Prism 3.0 (GraphPad Software, La Jolla, CA, USA) and IC50 values were determined using the formula: % Activity=100/(1+10^(log[I]−log IC 50)).

E. coli endonuclease IV = biological target: T2, E. coli endonuclease IV (Escherichia coli, UniProt P0A6C1); assay: Fluorescence-based endonuclease IV cleavage assay (counter-screen); format: biochemical; conditions: tested at 100 μM
T2 construct: purchased Trevigen
Description: as §1, §2

[1] = biological target: T3, AP endonuclease activity of HeLa whole-cell extracts (WCE) (Homo sapiens, UniProt P27695); assay: Whole-cell extract AP-site cleavage assay; format: biochemical
T3 construct: incubated at 100 μM concentrations with 30 ng of HeLa WCE at room temperature; endogenous in cells; host or cells: HeLa whole-cell extract
Description: The supernatant WCE was retained, the protein concentration determined using the Bio-Rad Bradford reagent, and aliquots were stored at −80°C. AP endonuclease activity assays using 18-mer radiolabelled oligonucleotide substrates (see above) were performed. In brief, all potential APE1 inhibitors were incubated at 100 μM concentrations with 30 ng of HeLa WCE at room temperature for 15 min in incision buffer consisting of 50 mM Tris-HCl, pH 8, 1 mM MgCl2, 50 mM NaCl and 2 mM DTT. After incubation, 0.5 pmol ^32P-radiolabeled THF-containing 18-mer double-stranded DNA substrate was added. […] The radiolabeled substrate and product were separated on a standard polyacrylamide-denaturing gel and quantified by phosphorimager analysis.

[2] = biological target: T4, D148E polymorphic variant of APE1 (Homo sapiens, UniProt P27695, D148E); assay: Fluorescence-based AP site cleavage assay, D148E polymorph; format: biochemical
T4 construct: made in house
Description: as §1
as §3, with “The data was fitted to a sigmoidal dose-response model using Graphpad Prism 3.0 (GraphPad Software, La Jolla, CA, USA) and IC50 values were determined using the formula: % Activity=100/(1+10^(log[I]−log IC 50)).” left out

[3] = biological target: T4, D148E polymorphic variant of APE1; assay: Radiolabelled oligonucleotide-based APE1 cleavage assay, D148E vs wild type; format: biochemical; conditions: data not shown
Description: This basic assay was performed as described previously ([Madhusudan et al, 2005]). Briefly, a radiolabelled uracil-containing oligonucleotide (5′-CTCGCAAGUGGGTACCGA-3′) was annealed to a complementary oligonucleotide. […] AP site cleavage reaction consisted of 50 nM APE1 and 0.75 ng reduced AP site double-stranded oligonucleotide incubated at 37°C for 1 h. The sample was resolved on a 15% TBE Criterion Pre Cast Gel (Bio-Rad, Hemel Hempstead, Herts, UK) and the radiolabelled substrate and reaction products were visualised using a phosphorImager (Molecular Dynamics, Buckinghamshire, UK).

glioma cell lines = assay: MTS assay, intrinsic cytotoxicity; format: cell-based; conditions: 120 h, MTS day 5, read-out: GI50 (cell growth inhibition)
Description: (§4) MeWo, SKMel and MM418 melanoma cancer cell line were grown in RPMI culture medium (supplemented with penicillin 0.06 g l^−1, streptomycin 0.1 g l^−1 pH 7.0, 10% foetal bovine serum (FBS, PAA Cell Culture Company, Yeovil, Somerset, UK). U89 MG and SNB-19 glioma cell lines were grown in DMEM (supplemented with penicillin 0.06 g l^−1, streptomycin 0.1 g l^−1 pH 7.0, 10% foetal bovine serum (FBS, PAA Cell Culture Company). HUVEC endothelial cells were grown in a special media (199 Media+HAMS F12), and supplemented with 20% heat-inactivated foetal calf serum, 1% Hepes, 1% Glutamine, 12.5 μg Human EGF, 625 ng of Human bFGF, 3750 units of Heparin, penicillin 0.06 g l^−1, and streptomycin 0.1 g l^−1) Only cultures with a plating efficiency of over 70% were used for analyses.
(§5) To evaluate intrinsic cytotoxicity and to evaluate the potentiation of toxicity of cytotoxic agents by APE1 inhibitors, MTS assays were performed as per the manufacturer's recommendation (Promega, Southampton, UK). Briefly, 2000 cells per well (in 200 μl of medium) were seeded into a 96-well plate. For HUVEC cells, 5 μl of 2% type 2 gelatine (Sigma) was added to the wells and the plates were preincubated for 20 min at 37°C before seeding of cells. For intrinsic cytotoxicity assessments, cells were incubated with varying concentrations of APE1 inhibitors and the MTS assay was performed on day 5. […] Non-radioactive cell proliferation assay was conducted as described previously.

melanoma cell lines = assay: MTS assay, intrinsic cytotoxicity; format: cell-based; conditions: 120 h, MTS day 5, read-out: GI50 (cell growth inhibition)
Description: as §4, §5

U89MG cells = assay: Aldehyde reactive probe assay, genomic AP sites; format: cell-based
Description: AP sites were quantified as described previously ([Madhusudan et al, 2005]). Genomic DNA was extracted from a pellet of 1 × 10^6 cells using the guanidine/detergent lysis method. Briefly, 0.5 ml of DNAzol (Helena Biosciences, Gateshead, UK) was added to the pellet and the cell lysate was gently passed several times through a pipette. The resultant viscous solution was centrifuged at 10 000 g for 10 min at 25°C. DNA was precipitated from the supernatant using 0.25 ml of 100% ethanol by gently inverting the tube 5–8 times at room temperature for 1–3 min. The DNA was washed twice in 0.4 ml of 75% ethanol. The DNA was then solubilized in TE buffer (pH 8.0), and the final concentration was adjusted to 100 μg ml^−1 (using a Gene Quant pro spectrophotometer). AP-site determinations were performed on the genomic DNA using an aldehyde reactive probe assay kit using the protocol provided by the manufacturer (BioVision Research Products, Mountainview, CA, USA). Untreated cells were compared with cells exposed to either MMS alone, APE1 inhibitor alone or combination of MMS and APE1 inhibitor. DNA was extracted at 90 min and AP site quantified as described previously. All experiments were performed in triplicate.

[4] = system: SK-Mel30 melanoma cell line; assay: MTS assay, potentiation of cytotoxic agents; format: cell-based; conditions: inhibitor 10 μM
Description: as §4, §5

U89MG glioma cell line = assay: MTS assay, potentiation of cytotoxic agents; format: cell-based; conditions: inhibitor 10 μM
Description: as §4, §5

HUVEC endothelial cells = assay: MTS assay, toxicity in non-cancer cells; format: cell-based; conditions: compared with SK-Mel30 and U89MG
Description: as §4
To evaluate intrinsic cytotoxicity and to evaluate the potentiation of toxicity of cytotoxic agents by APE1 inhibitors, MTS assays were performed as per the manufacturer's recommendation (Promega, Southampton, UK). Briefly, 2000 cells per well (in 200 μl of medium) were seeded into a 96-well plate. For HUVEC cells, 5 μl of 2% type 2 gelatine (Sigma) was added to the wells and the plates were preincubated for 20 min at 37°C before seeding of cells. For intrinsic cytotoxicity assessments, cells were incubated with varying concentrations of APE1 inhibitors and the MTS assay was performed on day 5. […]

[5] = system: melanoma and glioma cell lines; assay: MTS assay, intrinsic cytotoxicity; format: cell-based; conditions: 120 h, MTS assay on day 5, read-out: GI50 (cell growth inhibition)
Description: as §4, §5

[6] = system: melanoma and glioma cell lines; assay: MTS assay, potentiation of cytotoxic agents (other inhibitors, data not shown); format: cell-based; conditions: relatively non-toxic inhibitor concentration
Description: as §4, §5

[7] = 30 ng HeLa WCE, read-out: WCE Inhibition (whole-cell extracts AP site cleavage inhibition)

T1 sequence (P27695 whole entry): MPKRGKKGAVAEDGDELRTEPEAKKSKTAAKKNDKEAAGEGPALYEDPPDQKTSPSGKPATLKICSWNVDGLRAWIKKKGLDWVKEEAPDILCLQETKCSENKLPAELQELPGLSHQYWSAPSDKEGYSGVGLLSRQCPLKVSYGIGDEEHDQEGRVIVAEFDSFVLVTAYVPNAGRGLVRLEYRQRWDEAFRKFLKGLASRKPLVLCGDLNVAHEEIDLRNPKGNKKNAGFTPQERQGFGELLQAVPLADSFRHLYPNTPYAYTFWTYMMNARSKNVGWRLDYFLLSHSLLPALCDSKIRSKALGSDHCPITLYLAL
T3 sequence (P27695 whole entry): as above
T4 sequence (P27695 whole entry D148E): as the sequence (P27695 whole entry) above, with D148E counted along it

SMILES | IC50 (Human APE1) | Endo IV inhibition (E. coli endonuclease IV) | inhibition at 100 µM [1, 7] | GI50 [5] | potentiation of cytotoxicity of alkylating agents [6] | also measured
Cc1ccc(-c2nc(S(=O)(=O)c3ccccc3)c(SCC(=O)Nc3ccc(F)cc3)o2)cc1 [Compound 4, N-(4-fluorophenyl)-2-(4-phenylsulfonyl-2-(p-tolyl)oxazol-5-yl) sulfanyl-acetamide] | 11 µM | no inhibition and None | > 75% |  |  | inhibition of AP site cleavage in WCE assay ([1]; 100 μM, HeLa WCE): > 90%; inhibition at 100 µM ([1]; HeLa WCE, read-out: inhibition of AP site cleavage in WCE assay): ~93%; IC50 ([2]; D148E polymorph, 50 nM protein, read-out: IC50 for APE1 inhibition, D148E protein): 5.56 µM; reduction of IC50 for D148E protein compared with wild type ([2]; D148E vs wild type): 50.5%; preferential inhibitory activity towards D148E compared with wild type ([2]; fluorescence or radiolabelled assays): D148E was more sensitive to inhibition; preferential inhibitory activity towards D148E protein, radiolabelled assay [3]: confirmed; GI50 (glioma cell lines): 17 µM; GI50 (melanoma cell lines): 20 µM; AP site content in genomic DNA, combination with MMS (U89MG cells; 10 μM inhibitor + MMS 600 μM, 90 min): increased AP site content; AP site accumulation in genomic DNA, inhibitor alone (U89MG cells; 10 μM, DNA extracted at 90 min, vs untreated cells): accumulated AP sites; potentiation of cytotoxicity of MMS [4]: Potentiation; potentiation of cytotoxicity of doxorubicin [4]: did not potentiate; potentiation of cytotoxicity of temozolomide [4]: Potentiation; potentiation of cytotoxicity of MMS (U89MG glioma cell line): Potentiation; also recorded: significantly potentiated; potentiation of cytotoxicity of doxorubicin (U89MG glioma cell line): did not potentiate; potentiation of cytotoxicity of temozolomide (U89MG glioma cell line): Potentiation; also recorded: significantly potentiated; toxicity to HUVEC cells (HUVEC endothelial cells): relatively nontoxic
O=C(CCCn1c(SCC(=O)Nc2nccs2)nc2ccsc2c1=O)NCc1ccc2c(c1)OCO2 [Compound 5, N-(benzo(1,3)dioxol-5-ylmethyl)-4-(2-oxo-4-(thiazol-2-ylcarbamoylmethylsulfanyl)-9-thia-3,5-diazabicyclo(4.3.0)nona-4,7,10-trien-3-yl)-butanamide] | 12 µM | None | 50 to 75% | 14 µM | Potentiation of cytotoxicity was also demonstrated | 
O=C(CSc1nc2ccccc2s1)CSc1nc2ccccc2s1 [Compound 6, 1,3-bis(1,3-benzothiazol-2-ylthio)acetone] | 3 µM | None |  | 50 µM | Potentiation of cytotoxicity was also demonstrated | WCE Inhibition (whole-cell extracts AP site cleavage inhibition) ([1]; 100 μM, 30 ng HeLa WCE): Strong
N#CC(C(=O)c1cc2ccccc2o1)c1nc2ccccc2s1 (stereo not drawn) [Compound 7, 3-benzofuran-2-yl-2-benzothiazol-2-yl-3-oxo-propanenitrile] | 2 µM | complete inhibition and yes | 50 to 75% | 40 µM | did not show any potentiation | Endo IV inhibition (E. coli endonuclease IV; listed as compound 7): blocked endonuclease IV activity
O=C(O)c1cc2cc(F)ccc2[nH]1 [Compound 1, 5-fluoro-1H-indole-2-carboxylic acid] | 10 µM | None | < 50% | > 300 µM | not | 
O=C(COc1ccc2ccccc2c1)Nc1ccc(O)c(-c2nc3ccccc3o2)c1 [Compound 2, N-(3-benzooxazol-2-yl-4-hydroxy-phenyl)-2-(2-naphthyloxy)acetamide] | 25 µM | None | 50 to 75% | 50 µM | Potentiation of cytotoxicity was also demonstrated | 
O=C(OCC(=O)N1NC(c2ccc3ccccc3c2)=CC1c1ccccc1)c1ccc([N+](=O)[O-])s1 (stereo not drawn) [Compound 3, (3-(2-naphthyl)-5-phenyl-2,5-dihydropyrazol-1-yl) carbonylmethyl 5-nitrothiophene-2-carboxylate] | 3 µM |  |  | 1 µM | did not shown any potentiation | inhibition of AP site cleavage in WCE assay ([1]; 100 μM, HeLa WCE): no activity; also recorded: did not inhibit; inhibition of AP site cleavage in WCE assay ([1]; 100 μM, HeLa WCE, listed as compound 3, 100 µM): no effect
